From article PMC3858832 (Journal of Controlled Release, 2013)
Blank lines part the entries; values can stand above or below the substance they belong to. Where no end group is shown, it is not given here.

Key:
[1] = Far-UV circular dichroism pH titration, midpoint of conformational transition (pKα); format: physicochemical; settings: far-UV CD intensity at 220 nm vs pH; peptide 30-50 μM in 5 mM Tris amine titrated with HClO4; 37 °C (310 K); average of two or more independent experiments
Excerpt: Therefore, we first investigated whether reducing hydrogen-bonding opportunities at the Dap side chain amine would improve its tolerance by cells in culture. Alkylation of the Dap primary amine may however also impact on the pKa. […] Measurement of side chain pKa in a peptide undergoing a conformational transition associated with a change in aggregation state is hindered by the large amounts of material required for potentiometric analyses and the unfavourable line broadening observed in NMR for self-associated peptides. Instead, we have observed the cooperative, pH responsive, change of conformation of cationic amphipathic peptides in aqueous solution using far-UV CD (Supp. Fig. 1B/C). LADap (Sup. Fig. 1B) and LADap(Me2) (Supp. Fig. 1C) adopt an α-helix conformation when dissolved in neutral or slightly basic aqueous solution and, when titrated with acid, an increasingly disordered conformation is observed. The CD intensity at 220 nm is considered indicative of α-helix content and can be plotted as a function of pH (Supp. Fig. 1D/E). […] Although other interactions may be expected to contribute to the pKα when compared with the pKa, an increase of the same magnitude (~ 0.6 pH units) is seen in both the pKα for the Dap rich peptide and the pKa for the model compound following dimethylation (Supp. Fig. 1D/E; Table 1).
Far-UV CD spectra were obtained for LAH4-L1, LAH6-L1 and the Dap and mono-methyl Dap containing analogues in aqueous Tris amine buffer at various pH (Supp. Fig. 4). […] For LAH4-L1, the pKα = 5.29 ± 0.25 and is in agreement with previous work while pKα = 4.45 ± 0.25 for LAH6-L1 is substantially higher than that reported recently for LAH6 peptides of greater hydrophobicity. The response of LADap4-L1 at 6.64 ± 0.08 is substantially more basic than the histidine-containing analogue. […]
Circular dichroism experiments - Peptides were dissolved in 5 mM Tris amine without pH adjustment at a final concentration of between 30 and 50 μM. The samples were titrated down by adding 0.3% or 1% (v/v) HClO4 solution in micro-litre amounts. ClO4- is optically […]
by HClO4 makes a significant improvement on spectral quality in the far-UV region. CD spectra were acquired on a Chirascan™ Spectrometer (Applied Photophysics, Leatherhead, UK) with samples maintained at 310 K. For pH titration experiments, far-UV CD spectra were obtained with the samples titrated down by adding 0.3% or 1% (v/v) HClO4 solution in micro-litre amounts. Spectra were recorded from 260 to 180 nm using a 0.5 mm path length and were processed using Chirascan software where a spectrum of the peptide free solution was subtracted and Savitzky-Gorlay smoothing with a convolution width of 5 points applied.
Results for all CD assay measurements are expressed as an average of two or more independent repeated experiments. […]
The pellets, containing lipid vesicles and associated peptides were transferred to Bruker 4 mm MAS rotors for NMR measurements. Lipid vesicles were also prepared in this way in the absence of peptide.
Solid-state NMR - 2H quadrupole echo experiments for samples containing either POPC-d31 or POPS-d31 were performed at 61.46 MHz on a Bruker Avance 400 NMR

A549 cells [2] = experiment: Protein content per well as measure of cytotoxicity during transfection of A549 cells; format: cell-based, human; settings: luciferase plasmid transfection, compared with LADap(Me2)
Excerpt: The pKα of LADap(Me2) is raised by N,N-dimethylation and is likely to be too high to substantially aid endosomal release; dimethylation nevertheless has beneficial effects on the nucleic acid transfer properties of the resulting peptide. […] However, the protein content of the cells, commonly used to calibrate the amount of specific luciferase activity, can be misleading. […] Accordingly, the transfection efficacies of LADap and Lipofectamine 2000™ (4:1) in this experiment are substantially overstated. When luciferase activity is plotted per well (Supp. Fig. 1H), not only is the robust and non-toxic transfection efficacy of LAH4-L1 evident, offering a 13.0 fold improvement over Lipofectamine 2000™, but also the advantages of LADap(Me2) over LADap are clear. The luciferase delivery efficacy of LADap(Me2) however was insufficient for it to be considered for siRNA delivery and further modifications were conceived.
Luciferase Activity (light units/10 s)
Luciferase Activity (light units/10 s/mg protein)
Mean Residue Ellipticity @220 nm (deg cm […]
Supplementary Figure 1. […] The midpoint of the conformational transition is determined as 6.22 ± 0.16 for LADap4 (D) and 6.80 ± 0.11 for LADap(Me2)4 (E). […] Lipofectamine and LADap4 are toxic to A549 cells but the N,N-dimethylation of Dap (LADap(Me2)4) reduces toxicity and increases gene transfer efficacy despite the high pKα determined in […]

A549 cells [3] = experiment: Luciferase reporter gene transfection of A549 cells; format: cell-based, human; settings: light units per well
[4] = tested on: GAPDH expression in A549 cells; experiment: siRNA-mediated silencing of GAPDH expression in A549 cells (Western blot densitometry), with or without BALF; format: cell-based, human; settings: Western blot densitometry 72 h post transfection
Procedure: (§3) The abilities of the peptides to successfully mediate specific silencing of GAPDH expression were then assessed in A549 cells (Fig. 2B), MCF-7 cells (Fig. 2C), HUVEC (Fig. 3A), THP-1 cells differentiated into macrophages (Fig. 4A) and undifferentiated THP-1 cells in suspension (Fig. 4B). Specific reductions in expression of GAPDH were assessed by densitometry of Western blots where the effects of administering siRNA targeting GAPDH was compared with that of non-targeting siRNA on the expression of GAPDH as endogenous reporter and β-actin as internal toxicity/specificity control (Figs. 2D, 3B, 4C).
To test the suitability of the peptides for future pulmonary delivery applications in vivo the ability of the peptides to mediate silencing of GAPDH expression in A549 cells was repeated in the presence of bronchoalveolar lavage fluid (BALF) as a model for airway surface liquid (ASL) (Fig. 2E/F).
(§4) siRNA transfection - A549, MCF-7 and THP-1 cells, were transfected with peptide/siRNA
complexes containing 50 or 100 pmol GAPDH siRNA or negative control siRNA/well in 6-
well plates, giving a final siRNA concentration of 50 or 100 nM. Cells were seeded at the
following densities; A549 and MCF-7 - 1 × 10^5 cells per well, THP-1 in suspension – 5 ×
10^5 cells per well, differentiated THP-1 – 1 × 10^6 cells per well.

MCF-7 cells = experiment: Luciferase reporter gene transfection of MCF-7 cells; format: cell-based, human; settings: 1 μg luciferase plasmid/well, 48 h
[5] = Solubility in aqueous media / 50% trifluoroethanol; format: physicochemical
Procedure: (§1) A further six N,N-dimethyl-Dap variant, LADap(Me2)6-A1 was prepared in an attempt to circumvent this by reducing the hydrophobicity by substituting four leucines with alanine.
Supplementary Figure 6. far-UV CD spectrum of LADap(Me2)6-L1 in 50% TFE.
A further six N,N-dimethyl-Dap variant, LADap(Me2)6-A1 was prepared in an attempt to circumvent this by reducing the hydrophobicity by substituting four leucines with alanine. While a small improvement in […]
spectrum was obtained (Supp. Fig. 6) which indicated the desired α-helix conformation would theoretically be obtainable if it could be delivered to the endosomal membrane.
(§2) (1 picture or pasted object on this page, not shown here)

[6] = Analytical HPLC retention time as indicator of peptide hydrophobicity; format: physicochemical; settings: 5-90% water/acetonitrile gradient, Waters Symmetry C8, 5 μm, 7.8 x 100 mm, Abs 215 nm
Procedure: as §1
Supplementary Figure 5. Analytical HPLC of three Dap rich peptides with differing levels of alkylation. A 5-90% water/acetonitrile gradient system was used using a Waters Symmetry™ C8, 5 μm, 7.8 x 100 mm column. The N-methylation of LADap-6-L1 to LADap(Me)6-L1 reduces the retention time of the peptide marginally however N,N-dimethylation to LADap(Me2)6-L1 causes a substantial shift to longer retention time and is consistent with the insolubility of this latter peptides in aqueous media. A fourth peptide, […]
alanine residues did improve hydrophobicity but not sufficiently to make the peptide readily soluble in […]
as §2

[7] = tested on: GAPDH expression in suspension monocyte THP-1 cells; experiment: siRNA-mediated silencing of GAPDH expression in suspension monocyte THP-1 cells (Western blot densitometry); format: cell-based, human; settings: siRNA at 20 or 40 nM, peptide/siRNA 10:1 w/w, Western blot 72 h, three independent experiments
Procedure: as §3
Cells were transfected with peptide/siRNA complexes containing GAPDH siRNA (+) or negative control siRNA (−) and β-actin served as an internal control for equal protein loading and off target effects. Densitometry results are shown for as an average of three independently repeated experiments (C). […] Vectors were prepared as for siRNA transfection experiments and the peptide to siRNA weight ratio was 10:1 in all cases.
The cells were transfected with Lipofectamine 2000™ at 2 μl per
well under the same conditions.
as §4
complexes containing 50 or 100 pmol GAPDH siRNA or negative control siRNA/well in 6- […]
The bound secondary antibodies were detected with ECL™ Western blotting detection […]

pKα at 37 °C (midpoint of the main conformational transition) [1]: 6.64 ± 0.08
Substance: KKALLAXALXLLALLALXLAXALKKA-NH2 [LADap4-L1, LAH4-L1 derivative comprising four Dap residues]

Substance: KKHLLAHLLHLLALLALHLLHALKHK-NH2 [LAH6-L1]
pKα at 37 °C (midpoint of the main conformational transition) [1]: 4.45 ± 0.25

pKα at 37 °C (midpoint of the main conformational transition) [1]: 5.33
Substance: KKLAHALHLLALLWLHLAHALKKA-NH2 [reference compound]

pKα at 37 °C (midpoint of the main conformational transition) [1]: 6.22 ± 0.16
Substance: KKLAXALXLLALLWLXLAXALKKA-NH2 [LADap, 24-residue cationic amphipathic peptide with four Dap residues]
cytotoxicity by protein content of wells (A549 cells [2]): notably more toxic

pKα at 37 °C (midpoint of the main conformational transition) [1]: 5.29 ± 0.25
Substance: KKALLAHALHLLALLALHLAHALKKA-NH2 [LAH4-L1, reference compound]
fold improvement in luciferase activity per well over Lipofectamine 2000 (4:1) (A549 cells [3]): 13.0 fold | reduction of GAPDH expression (silencing) ([4]; 50% BALF): 29.4 ± 11.8% | reduction of GAPDH expression (silencing) ([4]; Opti-MEM I): 73.5 ± 3.7%

pKα at 37 °C (midpoint of the main conformational transition) [1]: 6.62 ± 0.04
Substance: KKALLAXALXLLALLALXLAXALKKA-NH2 [LADap(Me)4-L1, LAH4-L1 derivative comprising four N-methylated Dap residues]
fold improvement in luciferase expression over LADap4-L1 (MCF-7 cells): 4.1 fold | fold improvement in luciferase expression over LAH4-L1 (MCF-7 cells): 2.0 fold

solubility in 50% trifluoroethanol ([5]; 50% trifluoroethanol): soluble in 50% trifluoroethanol | solubility in aqueous media [5]: insoluble in aqueous media
Substance: KKXLLAXLLXLLALLALXLLXALKXK-NH2 [LADap(Me2)6-L1, 26-residue peptide with six N,N-dimethyl-Dap residues]

pKα at 37 °C (midpoint of the main conformational transition) [1]: 5.67 ± 0.17
Substance: KKXLLAXLLXLLALLALXLLXALKXK-NH2 [LADap6-L1, 26-residue peptide with six Dap residues]

HPLC retention time (measure of hydrophobicity) [6]: 28.37 min | solubility in aqueous media [5]: insufficiently soluble
Substance: KKXLLAXALXALLALLAXLAXALKXK-NH2 [LADap(Me2)6-A1, more hydrophilic six N,N-dimethyl-Dap variant, four leucines substituted with alanine]

Substance: KKXLLAXLLXLLALLALXLLXALKXK-NH2 [LADap(Me)6-L1, 26-residue peptide with six N-methyl Dap residues]
reduction of GAPDH expression (silencing) ([4]; Opti-MEM I): 88.0 ± 6.8% | reduction of GAPDH expression [7]: 92.3 ± 3.7%

pKα at 37 °C (midpoint of the main conformational transition) [1]: 6.80 ± 0.11
Substance: KKLAXALXLLALLWLXLAXALKKA-NH2 [LADap(Me2), 24-residue cationic amphipathic peptide with four N,N-dimethyl-Dap residues]
